The record followed here is patent US20090239828A1, “Adhesive preparation” (priority 2006, published 2009).

Series [1] is described as follows: Oral administration in rat models of osteoporosis. Particulars: in vivo; from the minimum effective dose in oral administration in rat models; read-out: sum of the AUC value of minodronic acid per month that gives a suppressive effect on osteoporosis. Here is the method:
The effective blood concentration of the bisphosphonic acid derivative for human can be extrapolated from results of various clinical tests, animal experiments, etc. For example, when minodronic acid hydrate was used, the sum of the AUC value of minodronic acid per month that gives a suppressive effect on osteoporosis was about 5 ng·hr/mL or more, from the minimum effective dose in oral administration in rat models of osteoporosis.

The nature of series [2]: Clinical test, once daily oral administration to patients with osteoporosis. Particulars: human, in vivo.

For `O=P(O)(O)C(O)(Cc1cnc2ccccn12)P(=O)(O)O` [minodronic acid hydrate, 1-hydroxy-2-(imidazo[1,2-a]pyridin-3-yl)ethylidenebisphosphonic acid], the values for the AUC in series [1] and in series [2] were at least 5 ng·h/mL and at least 1 ng·h/mL, respectively.
